The test system of assay [1] is BMDM. Kind of assay: Antiinflammatory activity in LPS-induced in C57 mouse BMDM cells assessed as reduction in IL-12 mRNA expression at 20 uM incubated for 12 hrs by qRT-PCR analysis. The format is functional, cell-based. For orientation: Real-time PCR tracks product formation cycle by cycle.
The test system of assay [2] is BMDM. In words: Antiinflammatory activity in LPS-induced in C57 mouse BMDM cells assessed as reduction in TNFalpha mRNA expression at 20 uM incubated for 12 hrs by qRT-PCR analysis. The format is functional, cell-based.
The subject of assay [3] is BMDM. In words: Antiinflammatory activity in LPS-induced in C57 mouse BMDM cells assessed as reduction in TNFalpha level by ELISA. It counts as functional, cell-based.
Assay [4] has as its system BMDM. Kind of assay: Antiinflammatory activity in LPS-induced in C57 mouse BMDM cells assessed as reduction in IL-6 level by ELISA. The format is functional, cell-based.
The subject of assay [5] is BMDM. In words: Antiinflammatory activity in LPS-induced in C57 mouse BMDM cells assessed as reduction in IFN-gamma level at 10 to 20 uM by ELISA (Rvb < 7.8 pg/ml). It counts as functional. The following applies: dose 10-20 µM. In general terms: ELISA stands for enzyme-linked immunosorbent assay.
Assay [6] concerns BMDM. In words: Antiinflammatory activity in LPS-induced in C57 mouse BMDM cells assessed as reduction in IFN-gamma level at 5 to 20 uM by ELISA (Rvb < 7.8 pg/ml). The following applies: dose 5-20 µM. It counts as functional.

Active and inactive are the calls of the source. The calls are words filed in the database; no cut-off is given here.

`C=C(C(=O)O)[C@H]1CC2=C(C)[C@H](O)CC[C@]2(C)[C@@H](OC(C)=O)C1`: the inhibition entry in the assay with BMDM [1] and with BMDM [2] was “Active” throughout.

Consider `C=C(C(=O)O)[C@@H]1C[C@H](O)[C@@]2(C)CCCC(=C)[C@]2(O)C1`, for which the inhibition entry in the assay with BMDM [1] and in the assay with BMDM [2] was “Active” in each case.

`C=C(C(=O)O)[C@H]1CC2=C(C)[C@@H](O)CC[C@]2(C)[C@@H](OC(C)=O)C1`: the inhibition result in the assay on BMDM [1] and in the assay on BMDM [2] was “Active” throughout.

As to `C=C(C(=O)O)[C@H]1CC2=C(C)[C@H](OCC)CC[C@]2(C)[C@@H](OC(C)=O)C1`, the inhibition result in the assay with BMDM [1] and in the assay on BMDM [2] was “Active” in each case.

As for `C=C(C(=O)O)[C@H]1CC2=C(C)CCC[C@]2(C)[C@@H](O)C1`, the inhibition result in the assay on BMDM [1] and in the assay with BMDM [2] was “Active” throughout. In addition, the inhibition entry with BMDM [3], in the assay on BMDM [4] and with BMDM [5] was “Dose-Dependent Effect” throughout. For the same compound, the Activity in the assay on BMDM [5] is under 7.8 pg/mL.

In the case of `C=C(C(=O)O)[C@@H]1C[C@H](OC(C)=O)[C@@]2(C)CCCC(=C)[C@]2(O)C1`, the inhibition entry in the assay with BMDM [1] and with BMDM [2] was “Active” throughout. Besides, the inhibition result in the assay with BMDM [3], in the assay on BMDM [4] and in the assay on BMDM [6] was “Dose-Dependent Effect” each time. Besides, the Activity in the assay with BMDM [6] was under 7.8 pg/mL.

Take `C=C(C(=O)O)[C@H]1C=C2C(C)=CCC[C@]2(C)[C@@H](O)C1`: the inhibition result in the assay with BMDM [1] and with BMDM [2] was “Active” each time. For the same compound, the inhibition entry with BMDM [3], with BMDM [4] and in the assay on BMDM [6] was “Dose-Dependent Effect” throughout. Moreover, in the assay with BMDM [6], the Activity was under 7.8 pg/mL.

Consider `C=C(C(=O)O)[C@H]1CC2=C(C)CCC[C@]2(C)[C@@H](OC(C)=O)C1`, for which the inhibition entry in the assay with BMDM [1] and in the assay on BMDM [2] was “Active” throughout.

`C=C(C(=O)O)[C@H]1CC2=C(CO)CCC[C@]2(C)[C@@H](OC(C)=O)C1`: the inhibition entry with BMDM [1] and in the assay with BMDM [2] was “Active” each time.

`C=C(C(=O)O)[C@H]1CC2=C(C=O)CCC[C@]2(C)[C@@H](O)C1`: the inhibition result with BMDM [1] and with BMDM [2] was “Active” in each case.

As to `C[C@]12CCC(=O)C=C1[C@H](O)[C@H]([C@](C)(O)CO)CC2`, the inhibition result in the assay with BMDM [1] and with BMDM [2] was “Active” throughout. In addition, the inhibition result with BMDM [3], with BMDM [4] and in the assay on BMDM [6] was “Dose-Dependent Effect” throughout. The Activity in the assay with BMDM [6] is under 7.8 pg/mL.

Turning to `C=C(C(=O)O)[C@@H]1CC[C@@]2(C)CCC[C@@](C)(O)[C@@H]2C1`, the inhibition result in the assay on BMDM [1] and in the assay on BMDM [2] was “Active” throughout.

Regarding `C=C(C(=O)O)[C@H]1CC2=C(C)[C@H](OC)CC[C@]2(C)[C@@H](OC(C)=O)C1`, the inhibition result in the assay on BMDM [1] and in the assay on BMDM [2] was “Active” throughout.

Take `C=C(C(=O)O)[C@H]1CC2=C(C(=O)O)CCC[C@]2(C)[C@@H](OC(C)=O)C1`: the inhibition entry with BMDM [1] and in the assay on BMDM [2] was “Active” each time.

With `CC(=O)O[C@H]1C[C@@H]([C@](O)(CO)C(=O)O)CC2=C(C)CCC[C@@]21C`, the inhibition entry in the assay on BMDM [1] and in the assay on BMDM [2] was “Active” in each case.

Take `C=C(C(=O)O)[C@@H]1C[C@H](OC(C)=O)[C@@]2(C)CCCC(=C)[C@@]2(O)C1`: the inhibition entry with BMDM [1] and in the assay on BMDM [2] was “Active” in each case.

As for `CC(=O)O[C@H]1C[C@@H]([C@@](O)(CO)C(=O)O)CC2=C(C)CCC[C@@]21C`, the inhibition result with BMDM [1] and with BMDM [2] was “Active” each time. For the same compound, the inhibition result with BMDM [3], with BMDM [4] and with BMDM [5] was “Dose-Dependent Effect” each time. In addition, the Activity in the assay with BMDM [5] was under 7.8 pg/mL.

In the case of `C=C(C(=O)O)[C@H]1CC2=C(C)C(=O)CC[C@]2(C)[C@@H](OC(C)=O)C1`, the inhibition entry in the assay on BMDM [1] and with BMDM [2] was “Active” each time. Moreover, the inhibition result in the assay with BMDM [3], with BMDM [4] and with BMDM [6] was “Dose-Dependent Effect” in each case. In addition, the Activity in the assay on BMDM [6] was under 7.8 pg/mL.

Consider `C=C(C(=O)O)[C@H]1CC2=C(C)C(=O)CC[C@]2(C)[C@@H](O)C1`, for which the inhibition result in the assay on BMDM [1] and with BMDM [2] was “Active” each time.

For the compound `C=C(C(=O)O)[C@H]1C=C2C(C)=CCC[C@]2(C)[C@@H](OC(C)=O)C1`, the inhibition result with BMDM [1] and in the assay with BMDM [2] was “Active” each time.

The values are drawn from ChEMBL document CHEMBL4834449, “Anti-inflammatory Eudesmane Sesquiterpenoids from Artemisia hedinii” (2021).
